Assays:
human M A1AT = target: T1, human M A1AT (Homo sapiens, UniProt P01009); assay: A1AT cell secretion assay using HEK-M cells (ELISA); format: cell-based; settings: 10 μM, 48 h
T1 construct: expressed in transfected cells; host or cells: HEK-M cells (HEK-EBNA with M A1AT plasmid)
Description: HEK-M cells, a human embryonic kidney cell line stably transfected with M A1AT, were plated into 96 well plates (3.0×10^5 cells/ml with 200 μl of media/well) overnight at 37° C. in a humidified atmosphere containing 5% CO2. Following incubation cells were washed with 200 μl serum-free media three times and media was replaced with serum-free media containing either vehicle, 10 μM suberanilohydroxamic acid (SAHA), (S)-1-((2-(trifluoromethyl)phenyl)sulfonyl)piperidine-3-carboxylic acid (at 10 μM) or (R)-1-((2-(trifluoromethyl)phenyl)sulfonyl)piperidine-3-carboxylic acid (at 10 μM) in replicates of six for 48 h in a 37° C. incubator in a final volume of 200 μl. At the end of the incubation step the supernatants were removed from the wells, centrifuged at 1000×g at 4° C. for 10 min and were assayed for human A1AT levels by ELISA (Human Serpin A1/α1 antitrypsin duo set ELISA, R& D Systems, DY1268) per manufacturer's instructions.
Briefly, a 96 well plate was coated with human A1AT capture antibody overnight at room temperature (1:180 dilution from stock, 100 μl final volume/well). The capture antibody was then removed and wells washed three times with 300 μl wash buffer (0.05% Tween in PBS) and then 200 μl reagent diluent (25% Tween 20 in PBS) was incubated in each well for 1 h at room temperature. Diluted samples, standards (125, 250, 500, 1000, 2000, 4000 and 8000 pg/ml A1AT) or blanks were then added to each well in duplicate and the plates were covered with a plate sealer and left at room temperature for 2 h. […] After which, 50 μl stop solution (2M H2SO4) was added and optical density (OD) of each well was read at 450 nm with 570 nm blank subtracted from each well using a microplate reader. A 4 parameter logistic curve was constructed using GraphPad Prism 7 and A1AT concentrations were determined in each sample by interpolation from a standard curve and multiplying by the appropriate dilution factor.
(§1) The amount of human A1AT secreted from transfected HEK-EBNA cells into the media was measured by ELISA. […]

[1] = Plasma protein binding by rapid equilibrium dialysis, human plasma; format: in vitro ADME; settings: 37° C.
Description: (§2) The extent to which (S)-1-((2-(trifluoromethyl)phenyl)sulfonyl)piperidine-3-carboxylic acid and (R)-1-((2-(trifluoromethyl)phenyl)sulfonyl)piperidine-3-carboxylic acid bound to plasma proteins such as albumin and alpha-1 acid glycoprotein within human or mouse blood was determined by rapid equilibrium dialysis. Compounds were incubated at 5 μM for 4 hours at 37° C. Plasma protein binding in mouse plasma was 78.1% and in human plasma was 91.5% for (S)-1-((2-(trifluoromethyl)phenyl)sulfonyl)piperidine-3-carboxylic acid. Plasma protein binding in mouse plasma was 83.8% and in human plasma was 90.5% for (R)-1-((2-(trifluoromethyl)phenyl)sulfonyl)piperidine-3-carboxylic acid.

[2] = Plasma protein binding by rapid equilibrium dialysis, mouse plasma; format: in vitro ADME; settings: 37° C.
Description: as §2

CYP 2D6 = target: T2, CYP 2D6 (Homo sapiens, UniProt P10635); assay: CYP inhibition, E. coli CYPEX membranes with probe substrates; format: in vitro ADME
T2 construct: purchased CYPEX; host or cells: E. coli
Description: (§3) Using E. coli CYPEX membranes in combination with specific probe substrates, the inhibition of individual CYPs by (S)-1-((2-(trifluoromethyl)phenyl)sulfonyl)piperidine-3-carboxylic acid and (R)-1-((2-(trifluoromethyl)phenyl)sulfonyl)piperidine-3-carboxylic acid was assessed (see Weaver et al., 2003, Drug Metab Dispos 31:7, 955-966).

CYP 2C9 = target: T3, CYP 2C9 (Homo sapiens, UniProt P11712); assay: as above; format: in vitro ADME
T3 construct: purchased CYPEX; host or cells: E. coli
Description: as §3

CYP 2C19 = target: T4, CYP 2C19 (Homo sapiens, UniProt P33261); assay: as above; format: in vitro ADME
T4 construct: purchased CYPEX; host or cells: E. coli
Description: as §3

human Z A1AT = human Z A1AT (Homo sapiens, UniProt P01009, E366K); assay: A1AT cell secretion assay using HEK-Z cells (ELISA); format: cell-based; parameters: expressed in transfected cells; host or cells: HEK-Z cells (HEK-EBNA with Z A1AT plasmid); settings: HEK-Z cells, 10, 33, 100 and 333 nM, 48 h
Description: HEK-Z cells, a human embryonic kidney cell line stably transfected with the human Z A1AT gene, were plated into 96 well plates (3.0×10^5 cells/ml with 200 μl of media/well) overnight at 37° C. in a humidified atmosphere containing 5% CO2. Following incubation cells were washed with 200 μl serum-free media three times and media was replaced with treatments in quadruplicate using serum-free media containing vehicle, 10 μM suberanilohydroxamic acid (SAHA), (S)-1-((2-(trifluoromethyl)phenyl)sulfonyl)piperidine-3-carboxylic acid or (R)-1-((2-(trifluoromethyl)phenyl)sulfonyl)piperidine-3-carboxylic acid (at concentrations of 10, 33, 100 and 333 nM) for 48 h in a 37° C. incubator in a final volume of 200 μl. […]
Briefly, a 96 well plate was coated with human A1AT capture antibody overnight at room temperature (1:180 dilution from stock, 100 μl final volume/well). […] After which, 50 μl stop solution (2M H2SO4) was added and optical density (OD) of each well was read at 450 nm with 570 nm blank subtracted from each well using a microplate reader. A 4 parameter logistic curve was constructed using GraphPad Prism 7 and A1AT concentrations were determined in each sample by interpolation from a standard curve and multiplying by the appropriate dilution factor.
as §1

T1 sequence (P01009 25-418): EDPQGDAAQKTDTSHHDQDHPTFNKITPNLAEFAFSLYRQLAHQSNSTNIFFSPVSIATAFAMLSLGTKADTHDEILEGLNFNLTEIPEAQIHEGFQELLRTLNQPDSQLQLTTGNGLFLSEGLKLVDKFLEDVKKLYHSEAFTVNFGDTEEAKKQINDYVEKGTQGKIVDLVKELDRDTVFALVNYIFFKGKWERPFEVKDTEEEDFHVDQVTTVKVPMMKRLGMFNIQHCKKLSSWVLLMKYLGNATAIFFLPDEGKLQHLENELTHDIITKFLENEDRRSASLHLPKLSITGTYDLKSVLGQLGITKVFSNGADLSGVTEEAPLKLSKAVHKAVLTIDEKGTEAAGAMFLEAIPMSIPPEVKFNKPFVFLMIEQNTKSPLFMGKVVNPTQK
T3 sequence (P11712 whole entry): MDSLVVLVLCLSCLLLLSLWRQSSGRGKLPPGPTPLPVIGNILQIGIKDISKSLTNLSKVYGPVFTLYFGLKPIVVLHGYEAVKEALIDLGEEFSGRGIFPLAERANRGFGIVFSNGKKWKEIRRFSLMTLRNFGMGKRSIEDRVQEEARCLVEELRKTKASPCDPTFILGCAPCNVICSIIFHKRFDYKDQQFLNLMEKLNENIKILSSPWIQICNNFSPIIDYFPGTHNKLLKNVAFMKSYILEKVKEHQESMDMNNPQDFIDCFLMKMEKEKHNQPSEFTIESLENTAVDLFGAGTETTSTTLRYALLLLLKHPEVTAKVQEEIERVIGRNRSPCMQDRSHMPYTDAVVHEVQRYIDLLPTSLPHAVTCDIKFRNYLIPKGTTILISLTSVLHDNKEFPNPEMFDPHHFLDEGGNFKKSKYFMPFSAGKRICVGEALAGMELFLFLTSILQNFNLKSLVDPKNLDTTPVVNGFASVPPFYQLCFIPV
T2 sequence (P10635 whole entry): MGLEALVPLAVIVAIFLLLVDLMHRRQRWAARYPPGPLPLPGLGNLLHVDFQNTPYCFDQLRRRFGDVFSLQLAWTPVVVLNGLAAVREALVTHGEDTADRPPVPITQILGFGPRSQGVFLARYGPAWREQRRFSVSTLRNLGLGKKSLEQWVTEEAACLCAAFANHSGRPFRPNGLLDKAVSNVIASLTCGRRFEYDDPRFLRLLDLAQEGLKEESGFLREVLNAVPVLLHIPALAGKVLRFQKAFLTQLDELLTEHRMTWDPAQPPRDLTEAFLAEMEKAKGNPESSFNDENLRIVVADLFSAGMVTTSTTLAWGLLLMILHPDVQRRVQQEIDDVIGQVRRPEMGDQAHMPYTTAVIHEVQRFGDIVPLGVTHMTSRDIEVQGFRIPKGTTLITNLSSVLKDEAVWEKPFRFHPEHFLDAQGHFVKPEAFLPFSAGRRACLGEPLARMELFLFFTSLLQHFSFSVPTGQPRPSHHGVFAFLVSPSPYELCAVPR
Chain of human Z A1AT (P01009 25-418 E366K): as the sequence (P01009 25-418) above, with E342K counted along it
T4 sequence (P33261 whole entry): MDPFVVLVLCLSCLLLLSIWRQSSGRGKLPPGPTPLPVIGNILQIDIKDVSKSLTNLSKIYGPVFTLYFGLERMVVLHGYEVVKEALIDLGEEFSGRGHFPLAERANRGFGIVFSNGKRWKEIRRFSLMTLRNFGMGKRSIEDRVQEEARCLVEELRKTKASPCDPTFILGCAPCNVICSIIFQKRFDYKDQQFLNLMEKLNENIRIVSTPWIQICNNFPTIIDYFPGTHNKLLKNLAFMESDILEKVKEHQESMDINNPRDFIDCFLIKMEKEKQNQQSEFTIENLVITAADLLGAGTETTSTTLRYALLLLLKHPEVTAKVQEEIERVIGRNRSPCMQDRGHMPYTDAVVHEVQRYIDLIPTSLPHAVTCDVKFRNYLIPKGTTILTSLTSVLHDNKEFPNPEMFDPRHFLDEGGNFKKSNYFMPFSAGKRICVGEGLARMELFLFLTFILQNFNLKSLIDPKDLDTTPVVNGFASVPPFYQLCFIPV

With `O=C(O)[C@@H]1CCCN(S(=O)(=O)c2ccccc2C(F)(F)F)C1` [(R)-1-((2-(Trifluoromethyl)phenyl)sulfonyl)piperidine-3-carboxylic acid] the “secretion of human M A1AT into cell supernatant” value (human M A1AT) was “does not stimulate secretion of human M A1AT”, the fraction unbound at 4 h, 5 μM [1] was 0.095 and the fraction unbound at 4 h, 5 μM [2] was 0.162. The IC50 (CYP 2D6) was > 50 µM, the IC50 (CYP 2C9) was > 50 µM and the IC50 (CYP 2C19) was > 50 µM. For the same compound, the “secretion of human Z A1AT into cell supernatant” value (human Z A1AT) was “stimulates secretion of human Z A1AT in a dose dependent manner”.
With `O=C(O)[C@H]1CCCN(S(=O)(=O)c2ccccc2C(F)(F)F)C1` [(S)-1-((2-(Trifluoromethyl)phenyl)sulfonyl)piperidine-3-carboxylic acid] the “secretion of human M A1AT into cell supernatant” value (human M A1AT) was “does not stimulate secretion of human M A1AT”, the fraction unbound at 4 h, 5 μM [1] was 0.085 and the fraction unbound at 4 h, 5 μM [2] was 0.219. For the same compound, the IC50 (CYP 2D6) was > 50 µM, the IC50 (CYP 2C9) was > 50 µM and the IC50 (CYP 2C19) was > 50 µM. For the same compound, the “secretion of human Z A1AT into cell supernatant” value (human Z A1AT) was “stimulates secretion of human Z A1AT in a dose dependent manner”.

Reference: patent publication US12673050B2, “Compositions and their use for the treatment of A1-antitrypsin deficiency” (Centessa Pharmaceuticals (UK) Limited, priority 2021, dated 2026)
